Here are results for six compounds from ChEMBL document CHEMBL1201862, “PubChem BioAssay data set” (2004).

Test [1] deals with Protein disulfide-isomerase (Homo sapiens, UniProt P07237). Description: inhibition of PDI-driven insulin aggregation – biochemical, turbidity, absorbance, cherry-picked samples, dose response (AID 602350). In kind it is functional.
Test [2] addresses T1, Orexin/Hypocretin receptor type 1 (Homo sapiens, UniProt O43613). Description: Homogeneous Time Resolved Fluorescence (HTRF)-based cell-based high throughput dose response assay for antagonists of the orexin 1 receptor (OX1R; HCRTR1). [Related pubchem assays (depositor defined):AID434989, AID435008, AID463079, AID485270, AID492963, AID492964, AID492965, AID493232, AID504717, AID504718]. In kind it is functional.

Test [3] addresses T2, Orexin receptor type 2 (Homo sapiens, UniProt O43614). Put plainly: Counterscreen assay for antagonists of the orexin 1 receptor (OX1R; HCRTR1): Fluorescence-based cell-based dose response assay for antagonists of the orexin 2 receptor (OX2R; HCRTR2), run by assay provider. In kind it is functional. For orientation: The purpose of a counterscreen is to sort out artefacts and off-target activity.

Test [4] is described as follows: Counterscreen for antagonists of the orexin 1 receptor (OX1R; HCRTR1): Fluorescence-based cell-based high throughput dose response assay to identify antagonists of the parental CHO cell line. [Related pubchem assays (depositor defined):AID434989, AID435008, AID463079, AID485270, AID492963, AID492964, AID492965, AID493232, AID504699, AID504701]. In kind it is functional.

For test [5], the target named is T2, Orexin receptor type 2. Description: Counterscreen assay for antagonists of the orexin 1 receptor (OX1R; HCRTR1): Homogeneous Time Resolved Fluorescence (HTRF)-based cell-based dose response assay for antagonists of the orexin 2 receptor (OX2R; HCRTR2), run by assay provider. In kind it is functional.
The subject of another test is CHO-K1. Put plainly: Counterscreen for antagonists of the orexin 1 receptor (OX1R; HCRTR1): Homogeneous time resolved fluorescence (HTRF)-based cell-based dose response assay to identify antagonists of the parental CHO-K1 cell line. [Related pubchem assays (depositor defined):AID434989, AID435008, AID463079, AID485270, AID492963, AID492964, AID492965, AID493232, AID504699, AID504701]. The class given is functional. Particulars: Cricetulus griseus.

The target of test [6] is T1, Orexin/Hypocretin receptor type 1. Put plainly: Fluorescence-based cell-based high throughput dose response assay for antagonists of the orexin 1 receptor (OX1R; HCRTR1). [Related pubchem assays (depositor defined):AID434989, AID435008, AID463079, AID485270, AID492963, AID492964, AID492965, AID493232, AID504717, AID504718]. The class given is functional.
Test [7] addresses MAP kinase-interacting serine/threonine-protein kinase 2 (Homo sapiens, UniProt Q9HBH9). The class given is functional.
The target of test [8] is Homeodomain-interacting protein kinase 2 (Homo sapiens, UniProt Q9H2X6). In kind it is functional.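 Note: measured within a kinome-wide kinase profiling panel, HIPK2 being one panel member.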
Homeodomain-interacting protein kinase 2, sequence (Q9H2X6 whole entry): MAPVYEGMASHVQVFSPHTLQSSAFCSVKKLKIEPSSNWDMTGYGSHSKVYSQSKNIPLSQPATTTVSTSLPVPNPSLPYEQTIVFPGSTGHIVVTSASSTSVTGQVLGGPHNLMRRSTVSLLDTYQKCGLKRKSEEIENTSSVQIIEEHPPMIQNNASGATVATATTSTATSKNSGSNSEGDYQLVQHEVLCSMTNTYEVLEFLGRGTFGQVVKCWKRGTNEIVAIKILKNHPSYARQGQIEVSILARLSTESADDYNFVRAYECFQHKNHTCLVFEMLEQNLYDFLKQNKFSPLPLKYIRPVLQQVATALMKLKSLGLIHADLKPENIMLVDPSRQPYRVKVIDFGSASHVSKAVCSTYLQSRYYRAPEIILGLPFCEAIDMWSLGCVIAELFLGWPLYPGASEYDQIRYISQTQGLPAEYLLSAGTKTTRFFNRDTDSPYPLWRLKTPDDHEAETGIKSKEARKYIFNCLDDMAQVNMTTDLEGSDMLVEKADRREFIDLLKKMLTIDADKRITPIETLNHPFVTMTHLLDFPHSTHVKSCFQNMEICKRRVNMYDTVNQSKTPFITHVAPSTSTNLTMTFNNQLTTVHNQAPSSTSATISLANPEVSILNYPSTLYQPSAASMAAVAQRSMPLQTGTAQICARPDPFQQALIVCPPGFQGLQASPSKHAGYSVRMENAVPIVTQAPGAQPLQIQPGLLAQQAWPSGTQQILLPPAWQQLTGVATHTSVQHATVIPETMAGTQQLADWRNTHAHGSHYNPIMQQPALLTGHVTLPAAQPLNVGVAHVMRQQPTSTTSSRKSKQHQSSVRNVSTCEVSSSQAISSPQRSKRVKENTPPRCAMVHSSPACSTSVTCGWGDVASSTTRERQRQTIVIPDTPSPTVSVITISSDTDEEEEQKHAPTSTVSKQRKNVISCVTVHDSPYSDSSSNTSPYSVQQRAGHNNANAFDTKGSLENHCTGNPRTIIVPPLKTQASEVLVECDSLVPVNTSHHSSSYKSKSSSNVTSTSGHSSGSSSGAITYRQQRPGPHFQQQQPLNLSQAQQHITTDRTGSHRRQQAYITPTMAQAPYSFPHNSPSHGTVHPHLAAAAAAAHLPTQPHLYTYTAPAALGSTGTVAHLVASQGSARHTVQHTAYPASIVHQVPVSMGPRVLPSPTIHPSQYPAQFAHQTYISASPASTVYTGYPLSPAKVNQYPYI
For test [9], the target named is Cyclin-dependent kinase 2 (Homo sapiens, UniProt P24941). In kind it is functional.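 Note: CDK2 measured as one member of a broad kinome profiling panel.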
Test [10] addresses Interleukin-1 receptor-associated kinase 4 (Homo sapiens, UniProt Q9NWZ3). The class given is functional.
Test [11] concerns the target Cell division cycle 7-related protein kinase (Homo sapiens, UniProt O00311). The class given is functional.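 Note: value obtained from a kinome-wide kinase panel.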
Test [12] has as its target Mitogen-activated protein kinase kinase kinase kinase 4 (Homo sapiens, UniProt O95819). In kind it is functional.
Test [13] addresses cAMP-dependent protein kinase catalytic subunit alpha (Homo sapiens, UniProt P17612). The class given is functional.
Test [14] deals with Glycogen synthase kinase-3 beta (Homo sapiens, UniProt P49841). In kind it is functional.
For test [15], the target named is Serine/threonine-protein kinase pim-1 (Homo sapiens, UniProt P11309). In kind it is functional.
Serine/threonine-protein kinase pim-1, sequence (P11309 whole entry): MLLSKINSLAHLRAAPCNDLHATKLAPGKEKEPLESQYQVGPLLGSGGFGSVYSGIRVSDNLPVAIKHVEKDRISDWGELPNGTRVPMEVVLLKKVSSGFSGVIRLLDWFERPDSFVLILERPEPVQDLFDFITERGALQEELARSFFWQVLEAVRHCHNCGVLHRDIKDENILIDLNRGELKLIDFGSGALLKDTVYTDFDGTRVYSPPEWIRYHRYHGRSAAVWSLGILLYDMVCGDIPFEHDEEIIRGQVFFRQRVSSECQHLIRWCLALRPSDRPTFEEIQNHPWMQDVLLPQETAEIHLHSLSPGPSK
Test [16] addresses Dual specificity protein kinase CLK4 (Homo sapiens, UniProt Q9HAZ1). The class given is functional.
In test [17] the target is Hepatocyte growth factor receptor (Homo sapiens, UniProt P08581). In kind it is functional.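 Note: kinase panel profiling across the kinome, with MET as the panel member.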
Test [18] concerns the target Fibroblast growth factor receptor 1 (Homo sapiens, UniProt P11362). The class given is functional.
The target in test [19] is ALK tyrosine kinase receptor (Homo sapiens, UniProt Q9UM73). In kind it is functional.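 Note: ALK tested as one member of a kinase panel screen.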
ALK tyrosine kinase receptor, sequence (Q9UM73 whole entry): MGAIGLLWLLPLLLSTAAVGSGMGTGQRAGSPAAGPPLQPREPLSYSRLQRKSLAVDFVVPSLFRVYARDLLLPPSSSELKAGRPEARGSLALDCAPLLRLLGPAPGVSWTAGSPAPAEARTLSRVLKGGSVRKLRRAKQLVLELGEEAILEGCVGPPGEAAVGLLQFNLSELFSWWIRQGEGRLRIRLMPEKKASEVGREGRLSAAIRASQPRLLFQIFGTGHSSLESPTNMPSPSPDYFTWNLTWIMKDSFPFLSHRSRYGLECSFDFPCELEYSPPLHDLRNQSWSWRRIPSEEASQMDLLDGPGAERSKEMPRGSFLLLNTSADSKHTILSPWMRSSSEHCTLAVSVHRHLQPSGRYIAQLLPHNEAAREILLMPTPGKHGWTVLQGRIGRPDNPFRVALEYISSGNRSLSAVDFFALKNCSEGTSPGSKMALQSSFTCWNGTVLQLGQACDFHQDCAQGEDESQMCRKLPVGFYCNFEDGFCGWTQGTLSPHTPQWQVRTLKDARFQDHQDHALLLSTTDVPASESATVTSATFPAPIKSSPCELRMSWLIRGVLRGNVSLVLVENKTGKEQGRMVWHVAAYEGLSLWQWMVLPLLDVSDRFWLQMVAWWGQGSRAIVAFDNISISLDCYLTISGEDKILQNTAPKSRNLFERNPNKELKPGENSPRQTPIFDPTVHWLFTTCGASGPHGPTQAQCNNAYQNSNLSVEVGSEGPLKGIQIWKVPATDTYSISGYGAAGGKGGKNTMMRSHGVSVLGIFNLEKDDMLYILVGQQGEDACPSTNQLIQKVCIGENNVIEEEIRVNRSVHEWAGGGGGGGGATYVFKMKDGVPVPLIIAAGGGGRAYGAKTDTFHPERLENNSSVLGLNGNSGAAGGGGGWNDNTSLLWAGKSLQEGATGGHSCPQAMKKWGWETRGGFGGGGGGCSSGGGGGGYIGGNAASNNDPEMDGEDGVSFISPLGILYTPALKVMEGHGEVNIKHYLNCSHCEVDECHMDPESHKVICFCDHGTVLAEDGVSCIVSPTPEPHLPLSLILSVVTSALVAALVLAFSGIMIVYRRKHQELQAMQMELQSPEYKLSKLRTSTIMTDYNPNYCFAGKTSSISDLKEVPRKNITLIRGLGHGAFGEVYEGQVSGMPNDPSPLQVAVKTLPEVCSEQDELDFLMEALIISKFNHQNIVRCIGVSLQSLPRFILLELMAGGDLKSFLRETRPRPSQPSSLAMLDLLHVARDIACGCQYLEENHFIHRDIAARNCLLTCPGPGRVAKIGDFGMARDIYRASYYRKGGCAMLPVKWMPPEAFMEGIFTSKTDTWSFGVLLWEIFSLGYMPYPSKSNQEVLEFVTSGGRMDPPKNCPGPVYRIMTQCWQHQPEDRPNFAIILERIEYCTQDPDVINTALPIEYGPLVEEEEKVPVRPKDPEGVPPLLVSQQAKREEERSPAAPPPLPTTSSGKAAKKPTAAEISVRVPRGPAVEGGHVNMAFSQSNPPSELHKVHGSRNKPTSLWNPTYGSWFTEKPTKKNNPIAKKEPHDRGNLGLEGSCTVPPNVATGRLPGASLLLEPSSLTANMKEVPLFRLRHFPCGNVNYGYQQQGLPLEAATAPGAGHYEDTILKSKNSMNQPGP
Test [20] deals with Vascular endothelial growth factor receptor 2 (Homo sapiens, UniProt P35968). In kind it is functional.
Test [21] has as its target Serine/threonine-protein kinase PLK3 (Homo sapiens, UniProt Q9H4B4). The class given is functional.
Test [22] has as its target Protein-tyrosine kinase 6 (Homo sapiens, UniProt Q13882). The class given is functional.
The target in test [23] is Vascular endothelial growth factor receptor 1 (Homo sapiens, UniProt P17948). In kind it is functional.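 Note: measured within a kinome-wide profiling panel, FLT1 as the panel member.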
The target of test [24] is Serine/threonine-protein kinase Chk1 (Homo sapiens, UniProt O14757). In kind it is functional.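 Note: measured as one member of a kinome-wide kinase profiling panel.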
Test [25] has as its target Serine/threonine-protein kinase pim-3 (Homo sapiens, UniProt Q86V86). The class given is functional.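 Note: value obtained as one member of a broad kinase panel profiling effort.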
The target of test [26] is Proto-oncogene tyrosine-protein kinase receptor Ret (Homo sapiens, UniProt P07949). In kind it is functional.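 Note: measured within a kinome-wide profiling panel, RET as the panel member.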
For test [27], the target named is Non-receptor tyrosine-protein kinase TYK2 (Homo sapiens, UniProt P29597). In kind it is functional.
A further test concerns the target Insulin receptor (Homo sapiens, UniProt P06213). The class given is functional.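 Note: insulin receptor kinase tested as one member of a kinome-wide kinase panel.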
In test [28] the target is Macrophage colony-stimulating factor 1 receptor (Homo sapiens, UniProt P07333). The class given is functional.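 Note: value comes from the Navigating the Kinome screening panel, CSF1R member.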
Test [29] addresses Serine/threonine-protein kinase PLK1 (Homo sapiens, UniProt P53350). The class given is functional.
Test [30] has as its target Receptor-type tyrosine-protein kinase FLT3 (Homo sapiens, UniProt P36888). In kind it is functional.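 Note: FLT3 was tested as one member of a kinome-wide kinase panel.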
Test [31] addresses Serine/threonine-protein kinase PLK4 (Homo sapiens, UniProt O00444). The class given is functional.
Test [32] addresses RAC-alpha serine/threonine-protein kinase (Homo sapiens, UniProt P31749). In kind it is functional.
Test [33] addresses RAC-gamma serine/threonine-protein kinase (Homo sapiens, UniProt Q9Y243). In kind it is functional.
The target in test [34] is Dual specificity tyrosine-phosphorylation-regulated kinase 1A (Homo sapiens, UniProt Q13627). The class given is functional.
The target in test [35] is Homeodomain-interacting protein kinase 4 (Homo sapiens, UniProt Q8NE63). In kind it is functional.
Test [36] concerns the target Casein kinase I isoform delta (Homo sapiens, UniProt P48730). The class given is functional.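 Note: measured as one member (CSNK1D) of a kinome panel.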
For a further test, the target named is SRSF protein kinase 1 (Homo sapiens, UniProt Q96SB4). In kind it is functional.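 Note: measured as one member of a kinome-wide kinase profiling panel.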
For test [37], the target named is Inhibitor of nuclear factor kappa-B kinase subunit beta (Homo sapiens, UniProt O14920). The class given is functional.
Another test concerns the target Aurora kinase A (Homo sapiens, UniProt O14965). In kind it is functional.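 Note: value from the Navigating the Kinome kinase panel profiling, panel entry STK6.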
For test [38], the target named is Dual specificity tyrosine-phosphorylation-regulated kinase 1A (Rattus norvegicus, UniProt Q63470). The class given is biochemical, Homo sapiens.

Each structure is given as a SMILES string. Calls of active or inactive are those of the source.

A word on the AC50: it is the concentration at which the activity in the assay is half-maximal. By IC50 is commonly meant the point on the concentration scale where inhibition reaches its midpoint. By Ki is commonly meant a measure of affinity in units of concentration, obtained from inhibition or displacement.

T1 sequence (O43613 whole entry): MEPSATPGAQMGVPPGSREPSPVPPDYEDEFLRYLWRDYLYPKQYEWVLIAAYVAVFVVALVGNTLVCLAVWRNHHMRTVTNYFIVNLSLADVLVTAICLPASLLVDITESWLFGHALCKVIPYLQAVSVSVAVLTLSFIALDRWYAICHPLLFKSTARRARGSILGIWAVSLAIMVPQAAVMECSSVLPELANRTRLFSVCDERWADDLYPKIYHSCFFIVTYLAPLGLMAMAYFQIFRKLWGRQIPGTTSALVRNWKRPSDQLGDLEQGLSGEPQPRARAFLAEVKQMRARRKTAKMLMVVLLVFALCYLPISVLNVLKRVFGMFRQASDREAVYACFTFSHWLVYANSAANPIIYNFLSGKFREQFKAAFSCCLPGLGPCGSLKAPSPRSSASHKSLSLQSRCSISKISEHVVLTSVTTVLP
Dual specificity protein kinase CLK4, sequence (Q9HAZ1 whole entry): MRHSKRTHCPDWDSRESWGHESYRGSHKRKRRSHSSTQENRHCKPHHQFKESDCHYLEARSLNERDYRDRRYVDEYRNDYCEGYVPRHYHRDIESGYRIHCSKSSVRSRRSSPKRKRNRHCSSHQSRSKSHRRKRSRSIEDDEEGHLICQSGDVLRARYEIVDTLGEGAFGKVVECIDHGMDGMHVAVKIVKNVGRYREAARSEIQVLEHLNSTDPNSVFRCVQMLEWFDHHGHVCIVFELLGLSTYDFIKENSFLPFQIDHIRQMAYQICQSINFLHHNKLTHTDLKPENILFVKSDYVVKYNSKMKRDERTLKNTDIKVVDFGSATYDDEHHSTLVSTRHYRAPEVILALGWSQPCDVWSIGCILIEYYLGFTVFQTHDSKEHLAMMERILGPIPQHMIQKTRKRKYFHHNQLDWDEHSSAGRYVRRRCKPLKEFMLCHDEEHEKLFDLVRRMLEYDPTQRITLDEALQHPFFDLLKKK
T2 sequence (O43614 whole entry): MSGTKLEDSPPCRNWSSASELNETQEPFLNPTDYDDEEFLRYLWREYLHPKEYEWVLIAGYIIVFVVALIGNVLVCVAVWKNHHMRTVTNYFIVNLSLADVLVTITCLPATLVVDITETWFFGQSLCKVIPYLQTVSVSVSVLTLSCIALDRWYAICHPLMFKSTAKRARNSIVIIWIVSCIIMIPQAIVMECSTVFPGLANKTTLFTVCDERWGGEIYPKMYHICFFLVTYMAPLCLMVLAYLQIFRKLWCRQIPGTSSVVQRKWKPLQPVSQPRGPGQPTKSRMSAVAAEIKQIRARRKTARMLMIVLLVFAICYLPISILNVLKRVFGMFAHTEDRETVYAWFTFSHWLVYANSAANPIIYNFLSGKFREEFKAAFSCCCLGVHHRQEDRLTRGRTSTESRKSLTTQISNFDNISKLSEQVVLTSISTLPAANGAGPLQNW
RAC-gamma serine/threonine-protein kinase, sequence (Q9Y243 whole entry): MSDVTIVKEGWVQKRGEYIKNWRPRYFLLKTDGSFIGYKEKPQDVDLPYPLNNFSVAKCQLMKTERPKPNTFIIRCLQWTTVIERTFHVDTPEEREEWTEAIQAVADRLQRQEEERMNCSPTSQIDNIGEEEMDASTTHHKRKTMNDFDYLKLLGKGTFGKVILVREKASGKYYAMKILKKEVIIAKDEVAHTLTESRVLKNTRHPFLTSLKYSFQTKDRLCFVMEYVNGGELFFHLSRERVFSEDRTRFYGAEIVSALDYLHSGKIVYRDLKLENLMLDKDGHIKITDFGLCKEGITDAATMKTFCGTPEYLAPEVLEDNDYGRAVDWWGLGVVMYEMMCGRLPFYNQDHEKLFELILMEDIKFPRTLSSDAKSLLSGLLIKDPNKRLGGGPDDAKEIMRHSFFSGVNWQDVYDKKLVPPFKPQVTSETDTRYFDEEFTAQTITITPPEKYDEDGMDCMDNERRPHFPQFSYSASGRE

`CC(C)Sc1nnc([C@H](Cc2c[nH]c3ccccc23)NC(=O)OC(C)(C)C)o1`: the concentration at half-maximal activity (AC50) in test [1] was 19.5 µM (active).

Regarding `Cc1ccc(NC2=NC(=O)/C(=C/c3cccn3C)S2)cc1C`, the IC50 is 2.2 µM (active) in test [2]; > 88.8 µM (inactive) at Orexin receptor type 2 [3]; > 49.7 µM (inactive) in test [4]; > 50 µM (inactive) at Orexin receptor type 2 [5]; > 66.2 µM (inactive) with CHO-K1; 2.24 µM (active) in test [6].

For `Cc1sc2[nH]c(=O)n3nc(-c4ccncc4)nc3c2c1C`, the Ki in [7] was > 10 µM (inactive); in [8], 2 µM (active); in test [9], > 7.94 µM (inactive); in [10], > 10 µM (inactive); in [11], 0.02 µM (active); in test [12], 5.01 µM (active). Besides, the Ki is > 7.94 µM (inactive) in [13], 0.631 µM (active) in [14], 0.794 µM (active) in test [15] and 1.26 µM (active) in test [16].

Turning to `Nc1nnc2ccc(-c3ccccc3)cn12`, the Ki in test [17] is > 31.6 µM (inactive); in test [18] it was 10 µM (active); in test [19] it was 12.6 µM (active); in test [20], 15.8 µM (active); in [21], > 79.4 µM (inactive); in [22] it was > 25.1 µM (inactive). Also, the Ki in test [23] was 2 µM (active); in test [24], > 79.4 µM (inactive); in test [25], 12.6 µM (active); in test [26], 10 µM (active); in test [27] it was > 20 µM (inactive); on Insulin receptor, > 50.1 µM (inactive). Further, the Ki in [28] was > 25.1 µM (inactive); in test [15], 10 µM (active); in [29] it was > 79.4 µM (inactive); in [30], 5.01 µM (active); in test [31] it was > 39.8 µM (inactive); in test [32] it was > 79.4 µM (inactive). Further, the Ki in test [33] was > 100 µM (inactive).

On to `CC(C)n1cnc2c(NCc3ccccc3)nc(NCCO)nc21`, for which the inhibitory constant (Ki) in test [34] is 3.16 µM (active); in [35], 2 µM (active); in test [36], 2.51 µM (active); on SRSF protein kinase 1, 6.31 µM (active); in [16], 2.51 µM (active).

On to `c1ccc2c(c1)[nH]c1cnccc12` [NORHARMANE], for which the inhibitory constant (Ki) is 7.94 µM (active) in test [37], 15.8 µM (active) on Aurora kinase A and 6.31 µM (active) in [15]. Also, in test [38], the AC50 is 8.75 µM (active).
